± gives the expanded uncertainty stated by the source.
Details: Crystal, Transpiration method

[CH]1C=CC=C1.[CH]1C=CC=C1.[Fe] [ferrocene]
vapor or sublimation pressure (361.2 K): 0.172 ± 0.021 kPa | vapor or sublimation pressure (363.2 K): 0.198 ± 0.025 kPa | vapor or sublimation pressure (366.5 K): 0.244 ± 0.031 kPa | vapor or sublimation pressure (368.2 K): 0.263 ± 0.034 kPa | vapor or sublimation pressure (371.7 K): 0.332 ± 0.042 kPa | vapor or sublimation pressure (374.4 K): 0.398 ± 0.05 kPa | vapor or sublimation pressure (378.3 K): 0.494 ± 0.063 kPa | vapor or sublimation pressure (385.7 K): 0.789 ± 0.098 kPa | vapor or sublimation pressure (388.6 K): 0.907 ± 0.11 kPa | vapor or sublimation pressure (392.1 K): 1.13 ± 0.14 kPa | vapor or sublimation pressure (394 K): 1.23 ± 0.15 kPa | vapor or sublimation pressure (401.8 K): 1.881 ± 0.24 kPa | vapor or sublimation pressure (410.1 K): 2.869 ± 0.36 kPa | vapor or sublimation pressure (417.3 K): 4.29 ± 0.54 kPa | vapor or sublimation pressure (419.4 K): 4.338 ± 0.54 kPa | vapor or sublimation pressure (429.4 K): 7.204 ± 0.9 kPa | vapor or sublimation pressure (430.7 K): 7.571 ± 0.95 kPa | vapor or sublimation pressure (434.6 K): 9.559 ± 1.2 kPa | vapor or sublimation pressure (435.2 K): 9.195 ± 1.2 kPa

Reference: the NIST ThermoML archive (doi:10.1016/j.fluid.2018.05.004)
